pIC50: −log10 of the molar value.
Experiments:
Format in all cases: cell-based
IL6 [1] = experiment: LPS stimulated IL6 inhibition assay in PBMC; settings: Homo sapiens, PBMC, 24 h, human PBMCs, LPS stimulation, compound overnight, IL6 by MSD after 24 hrs; for Dmax: read-out: LPS Stim IL6 inhibition Dmax; for pIC50: read-out: LPS stim IL6 inhibition IC50
Description: (§1) IL-1β, LPS, or R848 Stimulated IL6 Inhibition and IL-1β Stimulated IL8 Inhibition Assay
(§2) Human PBMC cells were seeded at 2.0×10^6 cells/mL, treated with compound overnight, and dosed with the EC50 concentration of each stimulant (either IL-1B. LPS, or R848) was determined for each donor. After 24 hrs, media was collected and analyzed by MSD for IL6 and/or IL8 levels.

IL6 [2] = experiment: R848 stimulated IL6 inhibition assay in PBMC; settings: PBMC, human PBMCs, R848 stimulation, compound overnight, IL6 by MSD after 24 hrs; for Dmax: Homo sapiens, 24 h, read-out: R848 stim IL6 inhibition Dmax; for pIC50: read-out: R848 stim IL6 inhibition IC50
Description: as §1, §2

IRAK-4 = biological target: T1, IRAK-4 (Homo sapiens, UniProt Q9NWZ3); experiment: IRAK-4 ELISA, PBMC degradation; set-up: endogenous in cells; host or cells: PBMC; settings: treated overnight
T1 sequence (Q9NWZ3 1-460): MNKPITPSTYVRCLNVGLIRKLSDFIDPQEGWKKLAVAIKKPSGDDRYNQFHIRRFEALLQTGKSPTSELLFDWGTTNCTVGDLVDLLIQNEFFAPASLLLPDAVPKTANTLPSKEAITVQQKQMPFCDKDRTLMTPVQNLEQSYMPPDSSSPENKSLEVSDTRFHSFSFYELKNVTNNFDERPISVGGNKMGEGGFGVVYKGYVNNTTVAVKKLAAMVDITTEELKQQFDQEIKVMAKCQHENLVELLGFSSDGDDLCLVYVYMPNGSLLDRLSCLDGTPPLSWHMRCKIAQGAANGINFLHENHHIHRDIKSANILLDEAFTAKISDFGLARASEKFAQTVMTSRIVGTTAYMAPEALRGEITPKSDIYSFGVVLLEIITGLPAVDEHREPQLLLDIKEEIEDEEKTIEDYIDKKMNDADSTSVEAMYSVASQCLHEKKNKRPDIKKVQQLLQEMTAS
Outline: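 Overnight compound treatment, started on the day of plating, of OCI-Ly10 (1×10^6/ml) and PBMC (2×10^6/ml) cultures. Lysates are collected and IRAK-4 content is read by sandwich ELISA.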

Row | SMILES | Dmax (IL6 [1]) [%] | pIC50 (IL6 [1]) | Dmax (IL6 [2]) [%] | pIC50 (IL6 [2]) | DC50 (IRAK-4) [µM] | Dmax (IRAK-4) [%] | PBMC DC90 (IRAK-4)
1 | O=C1CCC(N2C(=O)c3ccc(N4CCN(C[C@H]5CC[C@H](N6Cc7cc(NC(=O)c8cnn9cccnc89)c(N8CCN(CC(F)F)CC8)cc7C6=O)CC5)CC4)cc3C2=O)C(=O)N1 (stereo partly drawn) [371′] | < 70 | 7.30 to 8.00 | ≥ 90 | 7.30 to 8.00 | 0.001 to 0.005 | ≥ 90 | B (B represents a DC90 value ≥10.0 nM and <25.0 nM)
2 | CC(C)Oc1cc2c(cc1NC(=O)c1cnn3cccnc13)CN(C[C@@H](F)C1CN(CC3CCN(c4ccc5c(c4)C(=O)N(C4CCC(=O)NC4=O)C5=O)CC3)C1)C2=O (stereo partly drawn) [Example 19] | 80 to 90 | 7.30 to 8.00 | ≥ 90 | 7.30 to 8.00 | 0.001 to 0.005 | 80 to 90 | A (A represents a DC90 value <10.0 nM)
3 | CC(C)Oc1cc2c(cc1NC(=O)c1cnn3cccnc13)CN(C1CCN(CC3CCN(c4ccc5c(c4F)CN(C4CCC(=O)NC4=O)C5=O)CC3)CC1)C2=O (stereo not drawn) [Example 41] | 70 to 80 | 7.30 to 8.00 | ≥ 90 | > 8.00 | < 0.001 | 80 to 90 | A (A represents a DC90 value <10.0 nM)
4 | O=C1CCC(N2C(=O)c3ccc(N4CCC(CN5CCC(N6Cc7cc(NC(=O)c8cnn9cccnc89)c(OCC(F)F)cc7C6=O)CC5)CC4)cc3C2=O)C(=O)N1 (stereo not drawn) [Example 42] | < 70 | 7.00 to 7.30 | < 70 | > 8.00 | 0.001 to 0.005 | ≥ 90 | B (B represents a DC90 value ≥10.0 nM and <25.0 nM)
5 | CC(C)Oc1cc2c(cc1NC(=O)c1cnn3cc(Cl)cnc13)CN(C1CCN(CC3CCN(c4ccc5c(c4)C(=O)N(C4CCC(=O)NC4=O)C5=O)CC3)CC1)C2=O (stereo not drawn) [Example 43] | < 70 | > 8.00 | 80 to 90 | 7.30 to 8.00 | 0.001 to 0.005 | ≥ 90 | B (B represents a DC90 value ≥10.0 nM and <25.0 nM)
6 | CN1CC(Oc2cc3c(cc2NC(=O)c2cnn4cccnc24)CN(C2CCN(CC4CN(c5ccc6c(c5)C(=O)N(C5CCC(=O)NC5=O)C6=O)C4)CC2)C3=O)C1 (stereo not drawn) [Example 44] | 70 to 80 | 7.00 to 7.30 | ≥ 90 | 7.30 to 8.00 | ≥ 0.01 | 80 to 90 | D (D represents a DC90 value ≥50 nM)
7 | O=C1CCC(N2Cc3ccc(N4CCC(CN5CCC(N6Cc7cc(NC(=O)c8cnn9cccnc89)c(OCC(F)F)cc7C6=O)CC5)CC4)cc3C2=O)C(=O)N1 (stereo not drawn) [Example 45] | 70 to 80 | 7.30 to 8.00 | ≥ 90 | > 8.00 | 0.001 to 0.005 | ≥ 90 | A (A represents a DC90 value <10.0 nM)
8 | CC(C)Oc1nc2c(cc1NC(=O)c1cnn3cccnc13)CN(C1CCN(CC3CCN(c4ccc5c(c4)C(=O)N(C4CCC(=O)NC4=O)C5=O)CC3)CC1)C2=O (stereo not drawn) [Example 46] | 70 to 80 | 7.30 to 8.00 | ≥ 90 | 7.30 to 8.00 | 0.001 to 0.005 | ≥ 90 | A (A represents a DC90 value <10.0 nM)
9 | CC(C)Oc1cc2c(cc1NC(=O)c1cnn3cccnc13)CN(C1CCN(CC3CCN(c4ccc5c(c4)C(=O)N([C@@H]4CCC(=O)NC4=O)C5=O)CC3)CC1)C2=O [Example 47] | 80 to 90 | 7.30 to 8.00 | 80 to 90 | 7.30 to 8.00 | 0.001 to 0.005 | ≥ 90 | A (A represents a DC90 value <10.0 nM)
10 | CC(C)Oc1cc2c(cc1NC(=O)c1cnn3cccnc13)CN(C1CCN(CC3CCN(c4ccc5c(c4)C(=O)N([C@H]4CCC(=O)NC4=O)C5=O)CC3)CC1)C2=O [Example 48] | 70 to 80 | 7.30 to 8.00 | ≥ 90 | 7.30 to 8.00 | < 0.001 | ≥ 90 | A (A represents a DC90 value <10.0 nM)
11 | O=C1CCC(N2Cc3ccc(N4CCC(CN5CCC(N6Cc7cc(NC(=O)c8cnn9cccnc89)c(N8CCC(N9CCC9)CC8)cc7C6=O)CC5)CC4)cc3C2=O)C(=O)N1 (stereo not drawn) [Example 49] | ≥ 90 | > 8.00 | ≥ 90 | > 8.00 | < 0.001 | ≥ 90 | A (A represents a DC90 value <10.0 nM)
12 | O=C1CCC(N2Cc3cc(N4CCC(CN5CCC(N6Cc7cc(NC(=O)c8cnn9cccnc89)c(N8CCN(CC(F)F)CC8)cc7C6=O)CC5)CC4)ccc3C2=O)C(=O)N1 (stereo not drawn) [Example 50] | < 70 | 7.30 to 8.00 | ≥ 90 | 7.30 to 8.00 | < 0.001 | ≥ 90 | A (A represents a DC90 value <10.0 nM)
13 | O=C1CCC(N2Cc3c(ccc(N4CCC(CN5CCC(N6Cc7cc(NC(=O)c8cnn9cccnc89)c(N8CCN(CC(F)F)CC8)cc7C6=O)CC5)CC4)c3F)C2=O)C(=O)N1 (stereo not drawn) [Example 51] | < 70 | 7.00 to 7.30 | ≥ 90 | 7.30 to 8.00 | < 0.001 | ≥ 90 | A (A represents a DC90 value <10.0 nM)
14 | CC(C)Oc1cc2nn(C3CCN(CC4(F)CN(c5ccc6c(c5)C(=O)N(C5CCC(=O)NC5=O)C6=O)C4)CC3)cc2cc1NC(=O)c1cnn2cccnc12 (stereo not drawn) [Example 265, N-[2-[1-[[1-[2-(2,6-dioxo-3-piperidyl)-1,3-dioxo-isoindolin-5-yl]-3-fluoro-azetidin-3-yl]methyl]-4-piperidyl]-6-isopropoxy-indazol-5-yl]pyrazolo[1,5-a]pyrimidine-3-carboxamide] | ≥ 90 | 7.30 to 8.00 | – | – | 0.001 to 0.005 | ≥ 90 | A (A represents a DC90 value <10.0 nM)
15 | CC(C)Oc1cc2nn(C[C@@H](F)C3CCN(CC4CN(c5ccc6c(c5)C(=O)N(C5CCC(=O)NC5=O)C6=O)C4)CC3)cc2cc1NC(=O)c1cnn2cccnc12 (stereo partly drawn) [Example 415] | – | – | – | – | 0.001 to 0.005 | 80 to 90 | A (A represents a DC90 value <10.0 nM)
16 | CC(C)Oc1nc2nn(C3CCN(CC4(F)CN(c5ccc6c(c5)CN(C5CCC(=O)NC5=O)C6=O)C4)CC3)cc2cc1NC(=O)c1cnn2cccnc12 (stereo not drawn) [Example 416, N-[2-[1-[[1-[2-(2,6-dioxo-3-piperidyl)-1-oxo-isoindolin-5-yl]-3-fluoro-azetidin-3-yl]methyl]-4-piperidyl]-6-isopropoxy-pyrazolo[3,4-b]pyridin-5-yl]pyrazolo[1,5-a]pyrimidine-3-carboxamide] | – | – | – | – | < 0.001 | 80 to 90 | A (A represents a DC90 value <10.0 nM)
17 | O=C1CCC(N2C(=O)c3ccc(N4CC5(CCCN(C6CCC(n7cc8cc(NC(=O)c9cnn%10cccnc9%10)c(OCC9CC9)cc8n7)CC6)C5)C4)cc3C2=O)C(=O)N1 (stereo not drawn) [Example 417, N-(6-(cyclopropylmethoxy)-2-(4-(2-(2-(2,6-dioxopiperidin-3-yl)-1,3-dioxoisoindolin-5-yl)-2,6-diazaspiro[3.5]nonan-6-yl)cyclohexyl)-2H-indazol-5-yl)pyrazolo[1,5-a]pyrimidine-3-carboxamide] | – | – | – | – | < 0.001 | ≥ 90 | A (A represents a DC90 value <10.0 nM)
18 | O=C1CCC(N2Cc3cc(N4CC(F)(CN5CCC(n6cc7cc(NC(=O)c8cnn9cccnc89)c(OCC8CC8)cc7n6)CC5)C4)cc(F)c3C2=O)C(=O)N1 (stereo not drawn) [Example 420, N-[6-(cyclopropylmethoxy)-2-[1-[[1-[2-(2,6-dioxo-3-piperidyl)-7-fluoro-1-oxo-isoindolin-5-yl]-3-fluoro-azetidin-3-yl]methyl]-4-piperidyl]indazol-5-yl]pyrazolo[1,5-a]pyrimidine-3-carboxamide] | – | – | – | – | < 0.001 | ≥ 90 | A (A represents a DC90 value <10.0 nM)
19 | O=C1CCC(N2Cc3cc(N4CC(F)(CN5CCC(n6cc7cc(NC(=O)c8cnn9cccnc89)c(OCC8CC8)cc7n6)CC5)C4)c(F)cc3C2=O)C(=O)N1 (stereo not drawn) [Example 421] | – | – | – | – | < 0.001 | 80 to 90 | A (A represents a DC90 value <10.0 nM)
20 | CC(C)Oc1cc2nn(C3CCN(CC4(F)CN(c5cc6c(cn5)C(=O)N(C5CCC(=O)NC5=O)C6=O)C4)CC3)cc2cc1NC(=O)c1cnn2cccnc12 (stereo not drawn) [Example 422, N-(2-(1-((1-(2-(2,6-dioxopiperidin-3-yl)-1,3-dioxo-2,3-dihydro-1H-pyrrolo[3,4-c]pyridin-6-yl)-3-fluoroazetidin-3-yl)methyl)piperidin-4-yl)-6-isopropoxy-2H-indazol-5-yl)pyrazolo[1,5-a]pyrimidine-3-carboxamide] | – | – | – | – | 0.001 to 0.005 | 70 to 80 | C (C represents a DC90 value ≥25.0 nM and <50 nM)

Reference: patent US20230099344A1, “COMPOUNDS AND METHODS FOR THE TARGETED DEGRADATION OF IRAK-4” (Arvinas Operations, Inc., priority 2021, published 2023)
